Experimental data: patent US9072734B2, “Quaternary ammonium salt compounds” (Teijin Pharma Limited, priority 2009, dated 2015)
Counter-ions that a name gives are not always drawn.

Legend:
[1] = target: T1, human M3 muscarinic receptor (Homo sapiens, UniProt P20309); assay: Inhibitory effect on methacholine-induced calcium influx, FLIPR assay, CHO-K1 cells stably expressing the human M3 muscarinic receptor; format: cell-based; conditions: inhibition of calcium influx induced by methacholine
T1 construct: expressed in transfected cells; host or cells: CHO-K1
T1 sequence (P20309 whole entry): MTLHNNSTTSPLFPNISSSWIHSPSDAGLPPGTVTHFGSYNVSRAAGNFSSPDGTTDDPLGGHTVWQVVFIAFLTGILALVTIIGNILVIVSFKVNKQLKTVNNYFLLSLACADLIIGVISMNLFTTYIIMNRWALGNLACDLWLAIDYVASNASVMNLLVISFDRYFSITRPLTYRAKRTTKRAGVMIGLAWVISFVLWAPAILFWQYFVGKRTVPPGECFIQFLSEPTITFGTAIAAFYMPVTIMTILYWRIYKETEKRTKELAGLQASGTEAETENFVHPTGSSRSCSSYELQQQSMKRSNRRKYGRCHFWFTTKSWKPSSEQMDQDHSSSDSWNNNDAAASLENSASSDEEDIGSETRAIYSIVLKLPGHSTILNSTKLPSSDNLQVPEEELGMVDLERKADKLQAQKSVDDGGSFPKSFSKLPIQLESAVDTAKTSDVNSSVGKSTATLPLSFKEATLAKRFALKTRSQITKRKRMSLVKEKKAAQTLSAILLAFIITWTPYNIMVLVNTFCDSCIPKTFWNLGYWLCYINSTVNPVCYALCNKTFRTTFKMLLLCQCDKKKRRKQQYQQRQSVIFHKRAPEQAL
Source text: Muscarinic receptor subtypes (M1, M3 and M5 receptors), which couple to Gq proteins, activate the phospholipase C (PLC) pathway upon agonist binding to the receptor. As a result, the activated PLC hydrolyzes phosphatidyl inositol diphosphate (PIP2) to diacyl glycerol (DAG) and […] (IP3), which in turn generates calcium release from intracellular stores, i.e., endoplasmic and sarcoplasmic reticula. By utilizing FLIPR (Molecular Devices, Inc.) assay in which a calcium sensitive dye (Component A) is used that fluoresces when free calcium binds, the increase in intracellular calcium is measured on the basis of the change in the fluorescence intensity.
Methacholine was added to CHO-K1 cells stably expressing the human M3 muscarinic receptor to induce calcium influx and evaluate the inhibitory effect of test compounds. In the experiment, a FLIPR Calcium assay kit (Molecular Devices, Inc.) was used.
CHO-K1 cells stably expressing the human M3 muscarinic receptor suspended in Ham's F-12 media (Invitrogen, Co.) containing 10% fetal bovine serum (FBS) were seeded into 96-well FLIPR plates at a volume of 100 μL/well. Next day, 60 μL/well of Non-wash-dye solution (Hank's buffered salt solution, HBSS, containing 20 mM HEPES and 6.5 mM probenecid) was added to the cells, which were then incubated for an hour at 37° C. in the presence of 5% carbon dioxide. 20 μL of 10 concentrations of test compound solutions (HBSS containing 1% DMSO, 20 mM HEPES, 2.5 mM probenecid and 0.05% bovine serum albumin, BSA) prepared at concentrations in a range of 0.01-1000 nM with 2-fold serial dilution) were added, followed by incubation for 180 seconds. Then, 20 μL of 30 nM methacholine solution (HBSS containing 20 mM HEPES, 2.5 mM probenecid and 0.05% bovine serum albumin, BSA) was added, and fluorescence intensity was traced by the intracellular calcium influx measuring device FLIPR 96 (Molecular Devices, Inc.) for 170 seconds. The difference between the lowest and the highest values of the fluorescence intensity (FI) over the period of the measurement was used as a measured value. The percentages of inhibition by the test compounds were calculated according to the following formula from the measured value of the methacholin-added and test compound non-added sample (FIpositive), the measured value of the methacholin non-added and test compound non-added sample (FInegative), and the measured value of the methacholin-added and test compound-added sample (FItest). (%) Percentage of inhibition by test compound=[(1−(FItest−FInegative)/(FIpositive−FInegative)]×100
The 50% inhibitory concentrations (IC50 values) of test compounds were analyzed by a four-parameter logistic model using XLfit4 (IDBS, Ltd.) for the percentage of the inhibition by different concentrations of test compounds.

[2] = target: T2, human β2 adrenergic receptor (Homo sapiens, UniProt P07550); assay: Whole-cell cAMP Flashplate assay using CHO-K1 cells stably expressing human β2 adrenergic receptor; format: cell-based; conditions: cAMP production
T2 construct: expressed in transfected cells; host or cells: CHO-K1
T2 sequence (P07550 whole entry): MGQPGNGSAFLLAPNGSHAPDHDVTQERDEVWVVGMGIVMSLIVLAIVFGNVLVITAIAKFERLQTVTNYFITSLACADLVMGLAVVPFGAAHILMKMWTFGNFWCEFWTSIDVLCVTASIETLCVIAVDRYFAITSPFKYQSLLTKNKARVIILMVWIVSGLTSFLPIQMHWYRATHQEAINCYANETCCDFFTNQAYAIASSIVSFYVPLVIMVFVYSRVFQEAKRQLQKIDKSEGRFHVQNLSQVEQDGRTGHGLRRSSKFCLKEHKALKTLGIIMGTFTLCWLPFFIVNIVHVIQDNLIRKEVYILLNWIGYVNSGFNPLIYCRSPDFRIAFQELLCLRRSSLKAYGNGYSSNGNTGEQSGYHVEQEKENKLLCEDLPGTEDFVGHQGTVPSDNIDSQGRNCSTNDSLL
Experimental: The β2 adrenergic receptor, which couples to Gs proteins, activates adenylate cyclase upon agonist binding to the receptor. As a result, cAMP is produced in cells. The activation ability of the β2 adrenergic receptor can be measured by measuring the amount of the cAMP with cAMP-Screen System (Applied Biosystems).
CHO-K1 cells expressing the human β2 adrenergic receptor suspended in Ham's F-12 media containing 10% FBS were seeded into 96-well plates at a volume of 100 μL/well. Next day, they were washed with 200 μL PBS(−), to which 80 μL of 0.5 mM IBMX solution (Ham's F-12 media containing 0.05% BSA) was then added, followed by incubation for 20 minutes at 37° C. in the presence of 5% carbon dioxide. 20 μL of 9 concentrations of test compound solutions (0.5 mM IBMX solution containing 1% DMSO) prepared at concentrations in a range of 0.01-1000 nM with 2-fold serial dilution) were added, followed by incubation for 20 minutes at 37° C. in the presence of 5% carbon dioxide. Then, 100 μL of Assay/Lysis Buffer (a reagent that comes with cAMP Screen System) was added. The cells were lysed by pipetting, further incubated for 30 minutes at 37° C., and then frozen at −80° C. After several days, samples, thawed at room temperature, were treated according to the protocol of cAMP Screen System, and then chemiluminescence was measured by EnVision (PerkinElmer, Inc.). The amount of cAMP was calculated from the standard curve for the standard attached to cAMP Screen System.
The concentrations of a test compound at which 50% of its maximal effect is reached (EC50 values) were analyzed by a four-parameter logistic model using XLfit4 (IDBS, Ltd.) for the amounts of cAMP production at different concentrations of the test compounds.

IC50 [1]	EC50 [2]	SMILES
16 nM	4 nM	Cc1cc(CNC[C@H](O)c2ccc(O)c3[nH]c(=O)ccc23)ccc1NC(=O)CCCc1ccc(-c2ccccc2)c(NC(=O)O[C@@H]2C[C@@H]3[C@H]4O[C@H]4[C@H](C2)[N+]3(C)C)c1 [Example 39, (1R,2R,4S,5S,7S)-7-({[5-(3-{[4-({[(2R)-2-hydroxy-2-(8-hydroxy-2-oxo-1,2-dihydroquinolin-5-yl)ethyl]amino}methyl)-2-methylphenyl]carbamoyl}propyl)-2-phenylphenyl]carbamoyl}oxy)-9,9-dimethyl-3-oxa-9-azatricyclo[3.3.1.0^2,4]nonan-9-ium trifluoroacetate]
46.4 nM	0.6 nM	C[N+]1(C)CCC(OC(=O)Nc2cc(OCCCCCCCCNC[C@H](O)c3ccc(O)c4[nH]c(=O)ccc34)ccc2-c2ccccc2)CC1 [Example 58, 4-[({5-[(8-{[(2R)-2-hydroxy-2-(8-hydroxy-2-oxo-1,2-dihydroquinolin-5-yl)ethyl]amino}octyl)oxy]-2-phenylphenyl}carbamoyl)oxy]-1,1-dimethylpiperidin-1-ium trifluoroacetate]
32.8 nM	0.4 nM	COc1cc(NC(=O)CCCCc2ccc(-c3ccccc3)c(NC(=O)OC3C[C@@H]4[C@H]5O[C@H]5[C@H](C3)[N+]4(C)C)c2)c(Cl)cc1CNC[C@H](O)c1ccc(O)c2[nH]c(=O)ccc12 (stereo partly drawn) [Example 52, (1R,2R,4S,5S,7S)-7-({[5-(4-{[2-chloro-4-({[(2R)-2-hydroxy-2-(8-hydroxy-2-oxo-1,2-dihydroquinolin-5-yl)ethyl]amino}methyl)-5-methoxyphenyl]carbamoyl}butyl)-2-phenylphenyl]carbamoyl}oxy)-9,9-dimethyl-3-oxa-9-azatricyclo[3.3.1.0^2,4]nonan-9-ium trifluoro acetate]
13.5 nM	5.1 nM	Cc1cc(NC(=O)CCc2ccc(-c3ccccc3)c(NC(=O)OC3CC[N+](C)(C)CC3)c2)ccc1CNC[C@H](O)c1ccc(O)c2[nH]c(=O)ccc12 [Example 8, 4-({[5-(2-{[4-({[(2R)-2-hydroxy-2-(8-hydroxy-2-oxo-1,2-dihydroquinolin-5-yl)ethyl]amino}methyl)-3-methylphenyl]carbamoyl}ethyl)-2-phenylphenyl]carbamoyl}oxy)-1,1-dimethylpiperidin-1-ium trifluoroacetate]
21.7 nM	0.4 nM	COc1cc(NC(=O)CCCc2ccc(-c3ccccc3)c(NC(=O)OC3C[C@H]4CC[C@H](C3)[N+]4(C)C)c2)c(Cl)cc1CNC[C@H](O)c1ccc(O)c2[nH]c(=O)ccc12 (stereo partly drawn) [Example 48, (1R,3R)-3-{[5-(3-{[2-chloro-4-({[(2R)-2-hydroxy-2-(8-hydroxy-2-oxo-1,2-dihydroquinolin-5-yl)ethyl]amino}methyl)-5-methoxyphenyl]carbamoyl}propyl)-2-phenylphenyl]carbamoyl}oxy)-8,8-dimethyl-8-azabicyclo[3.2.1]nonan-8-ium trifluoroacetate]
16.5 nM	1.9 nM	CCOc1cc(NC(=O)CCc2ccc(-c3ccccc3)c(NC(=O)OC3C[C@@H]4[C@H]5O[C@H]5[C@H](C3)[N+]4(C)C)c2)ccc1CNC[C@H](O)c1ccc(O)c2[nH]c(=O)ccc12 (stereo partly drawn) [Example 47, (1R,2R,4S,5S,7S)-7-({[5-(2-{[4-({[(2R)-2-hydroxy-2-(8-hydroxy-2-oxo-1,2-dihydroquinolin-5-yl)ethyl]amino}methyl)-3-ethoxyphenyl]carbamoyl}ethyl)-2-phenylphenyl]carbamoyl}oxy)-9,9-dimethyl-3-oxa-9-azatricyclo[3.3.1.0^2,4]nonan-9-ium trifluoroacetate]
23.2 nM	0.9 nM	CCOc1cc(NC(=O)CCCc2ccc(-c3ccccc3)c(NC(=O)OC3CC[N+](C)(C)CC3)c2)c(Cl)cc1CNC[C@H](O)c1ccc(O)c2[nH]c(=O)ccc12 [Example 26, 4-({[5-(3-{[2-chloro-5-ethoxy-4-({[(2R)-2-hydroxy-2-(8-hydroxy-2-oxo-1,2-dihydroquinolin-5-yl)ethyl]amino}methyl)phenyl]carbamoyl}propyl)-2-phenylphenyl]carbamoyl}oxy)-1,1-dimethylpiperidin-1-ium trifluoroacetate]
38.9 nM	0.2 nM	C[N+]1(C)[C@@H]2C[C@@H](OC(=O)Nc3ccc(CCCC(=O)Nc4ccc(CNC[C@H](O)c5ccc(O)c6[nH]c(=O)ccc56)cc4Cl)cc3-c3ccccc3)C[C@H]1[C@@H]1O[C@@H]12 [Example 71, (1R,2R,4S,5S,7S)-7-({[4-(3-{[2-chloro-4-({[(2R)-2-hydroxy-2-(8-hydroxy-2-oxo-1,2-dihydroquinolin-5-yl)ethyl]amino}methyl)phenyl]carbamoyl}propyl)-2-phenylphenyl]carbamoyl}oxy)-9,9-dimethyl-3-oxa-9-azatricyclo[3.3.1.0^2,4]nonan-9-ium trifluoroacetate]
51.8 nM	0.2 nM	COc1cc(NC(=O)CCCc2ccc(NC(=O)O[C@@H]3C[C@@H]4[C@H]5O[C@H]5[C@H](C3)[N+]4(C)C)c(-c3ccccc3)c2)c(Cl)cc1CNC[C@H](O)c1ccc(O)c2[nH]c(=O)ccc12 [Example 55, (1R,2R,4S,5S,7S)-7-({[4-(3-{[2-chloro-4-({[(2R)-2-hydroxy-2-(8-hydroxy-2-oxo-1,2-dihydroquinolin-5-yl)ethyl]amino}methyl)-5-methoxyphenyl]carbamoyl}propyl)-2-phenylphenyl]carbamoyl}oxy)-9,9-dimethyl-3-oxa-9-azatricyclo[3.3.1.0^2,4]nonan-9-ium trifluoroacetate]
10.5 nM	3.9 nM	COc1cc(CNC[C@H](O)c2ccc(O)c3[nH]c(=O)ccc23)ccc1NC(=O)CCc1ccc(-c2ccccc2)c(NC(=O)OC2CC[N+](C)(C)CC2)c1 [Example 10, 4-({[5-(2-{[4-({[(2R)-2-hydroxy-2-(8-hydroxy-2-oxo-1,2-dihydroquinolin-5-yl)ethyl]amino}methyl)-2-methoxyphenyl]carbamoyl}ethyl)-2-phenylphenyl]carbamoyl}oxy)-1,1-dimethylpiperidin-1-ium trifluoroacetate]
74.1 nM	1.3 nM	C[N+]1(C)CCC(OC(=O)Nc2cc(CCCOCCCCCNC[C@H](O)c3ccc(O)c4[nH]c(=O)ccc34)ccc2-c2ccccc2)CC1 [Example 78, 4-{[(5-{3-[(5-{[(2R)-2-hydroxy-2-(8-hydroxy-2-oxo-1,2-dihydroquinolin-5-yl)ethyl]amino}pentyl)oxy]propyl}-2-phenylphenyl)carbamoyl]oxy}-1,1-dimethylpiperidin-1-ium trifluoroacetate]

SMILES	IC50 [1]	EC50 [2]
C[N+]1(C)[C@@H]2CC(OC(=O)Nc3cc(CCC(=O)Nc4ccc(CNC[C@H](O)c5ccc(O)c6[nH]c(=O)ccc56)cc4Cl)ccc3-c3ccccc3)C[C@H]1[C@@H]1O[C@@H]12 (stereo partly drawn) [Example 44, (1R,2R,4S,5S,7S)-7-({[5-(2-{[2-chloro-4-({[(2R)-2-hydroxy-2-(8-hydroxy-2-oxo-1,2-dihydroquinolin-5yl)ethyl]amino}methyl)phenyl]carbamoyl}ethyl)-2-phenylphenyl]carbamoyl}oxy)-9,9-dimethyl-3-oxa-9-azatricyclo[3.3.1.0^2,4]nonan-9-ium trifluoroacetate]	13.9 nM	1.7 nM
